The results in this text go back to patent US9662327B2 (AGIOS PHARMACEUTICALS, INC, priority 2011, dated 2017).

This assay deals with IDH1 R132H (Homo sapiens (Human), UniProt O75874, R132H). In words: Assays for IDH1 R132H Inhibitors (NADPH/aKG, resazurin detection). It counts as biochemical. The conditions noted are these: IDH1 R132H enzyme. The method in brief: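 Substrate mix held 8 uM NADPH plus 2 mM aKG; buffer was 20 mM Tris pH 7.5 with 150 mM NaCl, 10 mM MgCl2, 0.03% BSA. After 50 min room-temperature reaction, NADPH remaining was detected with 30 μM resazurin mix over 5 min.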
Sequence of IDH1 R132H (O75874 whole entry R132H): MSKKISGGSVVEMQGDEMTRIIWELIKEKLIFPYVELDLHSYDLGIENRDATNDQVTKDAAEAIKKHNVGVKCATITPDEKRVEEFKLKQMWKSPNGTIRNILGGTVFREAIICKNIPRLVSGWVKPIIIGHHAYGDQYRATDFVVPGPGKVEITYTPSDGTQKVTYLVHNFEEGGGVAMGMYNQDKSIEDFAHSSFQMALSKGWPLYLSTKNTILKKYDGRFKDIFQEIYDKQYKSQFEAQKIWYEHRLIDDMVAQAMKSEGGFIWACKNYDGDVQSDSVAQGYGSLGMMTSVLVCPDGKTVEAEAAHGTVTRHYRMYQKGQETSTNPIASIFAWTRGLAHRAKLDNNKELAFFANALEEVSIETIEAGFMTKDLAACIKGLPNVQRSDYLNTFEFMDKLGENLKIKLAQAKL
(Alamar Blue is a resazurin reagent that responds to reducing activity.)

Setting [1] is: Table 2, read-out: IDHR132H Activity.

Read-outs that look alike come from different tables or passages of the source.

As for `CC(C)[C@@H]1CN(c2nc(C3CC3)c3c(c2C#N)CC(C)(C)OC3)CCN1C(=O)COCC1CC1` [Compound 390], under setting [1], the IC50 was in the range of 500 to 1000 nM.

For the compound `CC(C)c1nc(N2CCN(C(=O)Cc3ccccc3F)[C@H](C(C)C)C2)c(C#N)c2c1COC(C)(C)C2` [Compound 215, (R)-6-(4-(2-(2-fluorophenyl)acetyl)-3-isopropylpiperazin-1-yl)-8-isopropyl-3,3-dimethyl-3,4-dihydro-1H-pyrano[3,4-c]pyridine-5-carbonitrile], under setting [1], the IC50 fell in the range of 1000 to 10000 nM.

Regarding `Cc1oncc1C(=O)N1CCN(c2nc(C(C)C)c3c(c2C#N)CC(C)(C)OC3)C[C@H]1C` [Compound 217, (R)-8-isopropyl-3,3-dimethyl-6-(3-methyl-4-(5-methylisoxazole-4-carbonyl)piperazin-1-yl)-3,4-dihydro-1H-pyrano[3,4-c]pyridine-5-carbonitrile], the IC50 under setting [1] is 500 to 1000 nM.

For `CCS(=O)(=O)N1CCN(c2nc(C3CC3)c3c(c2C#N)CC(C)(C)OC3)C[C@H]1C(C)C` [Compound 391, (R)-8-cyclopropyl-6-(4-(ethylsulfonyl)-3-isopropylpiperazin-1-yl)-3,3-dimethyl-3,4-dihydro-1H-pyrano[3,4-c]pyridine-5-carbonitrile], under setting [1], the IC50 is 1000 to 10000 nM.

`CC(C)[C@@H]1CN(c2nc(C3CC3)c3c(c2C#N)CC(C)(C)OC3)CCN1C(=O)Cn1cncn1` [Compound 324, (R)-6-(4-(2-(1H-1,2,4-triazol-1-yl)acetyl)-3-isopropylpiperazin-1-yl)-8-cyclopropyl-3,3-dimethyl-3,4-dihydro-1H-pyrano[3,4-c]pyridine-5-carbonitrile]: the IC50 under setting [1] was in the range of 1000 to 10000 nM.

Turning to `CC(C)c1nc(N2CCN(C(=O)Cc3cccnc3)[C@H](C(C)C)C2)c(C#N)c2c1COC(C)(C)C2` [Compound 250, (R)-8-isopropyl-6-(3-isopropyl-4-(2-(pyridin-3-yl)acetyl)piperazin-1-yl)-3,3-dimethyl-3,4-dihydro-1H-pyrano[3,4-c]pyridine-5-carbonitrile], the IC50 under setting [1] was in the range of 500 to 1000 nM.

For `C[C@@H]1CN(c2nc(C3CCCCC3)c3c(c2C#N)CCOC3)CCN1C(=O)c1ccoc1` [Compound 160, (R)-8-cyclohexyl-6-(4-(furan-3-carbonyl)-3-methylpiperazin-1-yl)-3,4-dihydro-1H-pyrano[3,4-c]pyridine-5-carbonitrile], under setting [1], the IC50 was 1000 to 10000 nM.

As to `COCCC(=O)N1CCN(c2nc(C3CCC3)c3c(c2C#N)CC(C)(C)OC3)C[C@H]1C(C)C` [Compound 395, (R)-8-cyclobutyl-6-(3-isopropyl-4-(3-methoxypropanoyl)piperazin-1-yl)-3,3-dimethyl-3,4-dihydro-1H-pyrano[3,4-c]pyridine-5-carbonitrile], under setting [1], the IC50 was < 500 nM.

As to `CC[C@@H]1CN(c2nc(C3CC3)c3c(c2C#N)CC(C)(C)OC3)CCN1C(=O)Cc1cccs1` [Compound 236], the IC50 under setting [1] is < 500 nM.

As for `CCOC(=O)C1CN(c2nc(C(C)C)c3c(c2C#N)CC(C)(C)OC3)CCN1C(=O)OC` (stereo not drawn) [Compound 333, 2-ethyl 1-methyl 4-(5-cyano-8-isopropyl-3,3-dimethyl-3,4-dihydro-1H-pyrano[3,4-c]pyridine-6-yl)piperazine-1,2-dicarboxylate], under setting [1], the IC50 was 1000 to 10000 nM.

As for `CC(C)[C@@H]1CN(c2nc(C3CC3)c3c(c2C#N)CC(C)(C)OC3)CCN1C(=O)CS(C)(=O)=O` [Compound 446, (R)-8-cyclopropyl-6-(3-isopropyl-4-(2-(methylsulfonyl)acetyl)piperazin-1-yl)-3,3-dimethyl-3,4-dihydro-1H-pyrano[3,4-c]pyridine-5-carbonitrile], the IC50 (Table 3, read-out: R132H IC50) is 500 to 1000 nM.

Regarding `Cc1ncoc1C(=O)N1CCN(c2nc(C3CCCCC3)c3c(c2C#N)CCOC3)C[C@H]1C` [Compound 225, (R)-8-cyclohexyl-6-(3-methyl-4-(4-methyloxazole-5-carbonyl)piperazin-1-yl)-3,4-dihydro-1H-pyrano[3,4-c]pyridine-5-carbonitrile], the IC50 under setting [1] lay in the range of 1000 to 10000 nM.

On to `CC(=O)N1CCN(c2nc(C3CC3)c3c(c2C#N)CC(C)(C)OC3)C[C@H]1C(C)C` [Compound 352], for which the IC50 under setting [1] was 500 to 1000 nM.

With `Cc1ncoc1C(=O)N1CCN(c2nc(C(C)C)c3c(c2C#N)CC(C)(C)OC3)C[C@H]1C(C)C` [Compound 213, (R)-8-isopropyl-6-(3-isopropyl-4-(4-methyloxazole-5-carbonyl)piperazin-1-yl)-3,3-dimethyl-3,4-dihydro-1H-pyrano[3,4-c]pyridine-5-carbonitrile], the IC50 under setting [1] was 1000 to 10000 nM.

For `C[C@@H]1CN(c2nc(C3CCCCC3)c3c(c2C#N)CCOC3)C[C@H](C)N1C(=O)c1ccco1` [Compound 128, 8-cyclohexyl-6-((3S,5R)-4-(furan-2-carbonyl)-3,5-dimethylpiperazin-1-yl)-3,4-dihydro-1H-pyrano[3,4-c]pyridine-5-carbonitrile], under setting [1], the IC50 lay in the range of 1000 to 10000 nM.

Turning to `CC[C@@H]1CN(c2nc(C3CC3)c3c(c2C#N)CC(C)(C)OC3)CCN1C(=O)Cc1ccccn1` [Compound 290], the IC50 under setting [1] was 1000 to 10000 nM.

For `CC(C)[C@@H]1CN(c2nc(C3CC3)c3c(c2C#N)CC(C)(C)OC3)CCN1C(=O)COC1CCOC1` (stereo partly drawn) [Compound 417, 8-cyclopropyl-6-((3R)-3-isopropyl-4-(2-(tetrahydrofuran-3-yloxy)acetyl)piperazin-1-yl)-3,3-dimethyl-3,4-dihydro-1H-pyrano[3,4-c]pyridine-5-carbonitrile], the IC50 under setting [1] was 1000 to 10000 nM.

For `Cc1oncc1C(=O)N1CCN(c2nc(C3CCCCC3)c3c(c2C#N)CCOC3)C[C@H]1C` [Compound 187, (R)-8-cyclohexyl-6-(3-methyl-4-(5-methylisoxazole-4-carbonyl)piperazin-1-yl)-3,4-dihydro-1H-pyrano[3,4-c]pyridine-5-carbonitrile], the IC50 under setting [1] was 500 to 1000 nM.

In the case of `C[C@@H]1CN(c2nc(C3CC3)c3c(c2C#N)CC(C)(C)OC3)CCN1C(=O)c1ccco1` [Compound 167], under setting [1], the IC50 was 1000 to 10000 nM.

As for `C[C@@H]1CN(c2nc(C3CCCCC3)c3c(c2C#N)CCOC3)CCN1C(=O)c1cocn1` [Compound 226, (R)-8-cyclohexyl-6-(3-methyl-4-(oxazole-4-carbonyl)piperazin-1-yl)-3,4-dihydro-1H-pyrano[3,4-c]pyridine-5-carbonitrile], the IC50 under setting [1] lay within 1000 to 10000 nM.

Consider `CC(C)[C@@H]1CN(c2nc(C3CC3)c3c(c2C#N)CC(C)(C)OC3)CCN1C(=O)Nc1ccc(F)cc1` [Compound 283], for which the IC50 under setting [1] was in the range of 1000 to 10000 nM.

In the case of `CC(C)c1nc(N2CCN(C(=O)c3ccoc3)C(c3ccccc3)C2)c(C#N)c2c1COC(C)(C)C2` (stereo not drawn) [Compound 155, 6-(4-(furan-3-carbonyl)-3-phenylpiperazin-1-yl)-8-isopropyl-3,3-dimethyl-3,4-dihydro-1H-pyrano[3,4-c]pyridine-5-carbonitrile], under setting [1], the IC50 fell in the range of 1000 to 10000 nM.

For the compound `Cc1occc1C(=O)N1CCN(c2nc(C(C)C)c3c(c2C#N)CCOC3)C(c2ccccc2)C1` (stereo not drawn) [Compound 177, 8-isopropyl-6-(4-(2-methylfuran-3-carbonyl)-2-phenylpiperazin-1-yl)-3,4-dihydro-1H-pyrano[3,4-c]pyridine-5-carbonitrile], the IC50 under setting [1] is 1000 to 10000 nM.

For the compound `CC1(C)Cc2c(C#N)c(N3CCN(C(=O)CC(F)(F)F)C(CC(F)(F)F)C3)nc(C3CC3)c2CO1` (stereo not drawn) [Compound 470, 8-cyclopropyl-3,3-dimethyl-6-(3-(2,2,2-trifluoroethyl)-4-(3,3,3-trifluoropropanoyl)piperazin-1-yl)-3,4-dihydro-1H-pyrano[3,4-c]pyridine-5-carbonitrile], the IC50 (Table 3, read-out: R132H IC50) was 500 to 1000 nM.

With `CC(C)[C@@H]1CN(c2nc(C3CC3)c3c(c2C#N)CC(C)(C)OC3)CCN1C(=O)Cc1ccccn1` [Compound 211], the IC50 under setting [1] is < 500 nM.

`CC1(C)Cc2c(C#N)c(N3CCN(C(=O)c4ccco4)CC3)nc(C3CCCCC3)c2CO1` [Compound 117, 8-cyclohexyl-6-(4-(furan-2-carbonyl)piperazin-1-yl)-3,3-dimethyl-3,4-dihydro-1H-pyrano[3,4-c]pyridine-5-carbonitrile]: the IC50 under setting [1] was 1000 to 10000 nM.

On to `CC(C)c1nc(N2CCN(C(=O)c3ccco3)[C@@H](c3ccccc3)C2)c(C#N)c2c1COC(C)(C)C2` [Compound 223, (S)-6-(4-(furan-2-carbonyl)-3-phenylpiperazin-1-yl)-8-isopropyl-3,3-dimethyl-3,4-dihydro-1H-pyrano[3,4-c]pyridine-5-carbonitrile], for which, under setting [1], the IC50 lay in the range of 500 to 1000 nM.

Take `CC(C)[C@@H]1CN(c2nc(C3CC3)c3c(c2C#N)CC(C)(C)OC3)CCN1C(=O)Cn1ccnn1` [Compound 408, (R)-6-(4-(2-(1H-1,2,3-triazol-1-yl)acetyl)-3-isopropylpiperazin-1-yl)-8-cyclopropyl-3,3-dimethyl-3,4-dihydro-1H-pyrano[3,4-c]pyridine-5-carbonitrile]: under setting [1], the IC50 lay within 1000 to 10000 nM.

Turning to `CCCC(=O)N1CCN(c2nc(C3CC3)c3c(c2C#N)CC(C)(C)OC3)C[C@H]1C(C)C` [Compound 383], the IC50 under setting [1] was < 500 nM.

Regarding `CC(C)[C@@H]1CN(c2nc(C3CC3)c3c(c2C#N)CC(C)(C)OC3)CCN1C(=O)Cn1ncc2ccccc21` [Compound 405, (R)-6-(4-(2-(1H-indazol-1-yl)acetyl)-3-isopropylpiperazin-1-yl)-8-cyclopropyl-3,3-dimethyl-3,4-dihydro-1H-pyrano[3,4-c]pyridine-5-carbonitrile], under setting [1], the IC50 was in the range of 1000 to 10000 nM.

Consider `CC[C@@H]1CN(c2nc(C3CC3)c3c(c2C#N)CC(C)(C)OC3)CCN1C(=O)c1cscn1` [Compound 293], for which, under setting [1], the IC50 was in the range of 1000 to 10000 nM.

Consider `CC(C)[C@@H]1CN(c2nc(C3CC3)c3c(c2C#N)CC(C)(C)OC3)CCN1C(=O)CCc1nnco1` [Compound 448, (R)-6-(4-(3-(1,3,4-oxadiazol-2-yl)propanoyl)-3-isopropylpiperazin-1-yl)-8-cyclopropyl-3,3-dimethyl-3,4-dihydro-1H-pyrano[3,4-c]pyridine-5-carbonitrile], for which the IC50 (Table 3, read-out: R132H IC50) is 500 to 1000 nM.

Consider `CCC1CN(c2nc(C3CCCCC3)c3c(c2C#N)CCOC3)CCN1C(=O)c1ccco1` (stereo not drawn) [Compound 174, 8-cyclohexyl-6-(3-ethyl-4-(furan-2-carbonyl)piperazin-1-yl)-3,4-dihydro-1H-pyrano[3,4-c]pyridine-5-carbonitrile], for which, under setting [1], the IC50 was 1000 to 10000 nM.
